Experiments:
MV4-11 cells = experiment: Cytotoxic activity of SLs against MV4-11 cells (flow cytometry, YO-PRO-1 / 7-AAD); assay type: cell-based; settings: MV4-11 AML cell line, cell viability at 36 hours, triplicate
Experimental: Following this promising data, additional SLs were studied. This included glaucolide A (FIG. 5A), glaucolide E (FIG. 5B) and calaxin (FIG. 4A). Further, an additional compound Bahia I (FIG. 11) was synthesized (described below) and evaluated. The cytotoxicity of these compounds was determined using the AML cell line, MV4-11. MV4-11 cells were treated with the compounds at varying concentrations in triplicate. Cells were then stained with YO-PRO-1 and 7-aminoactinomycin D (7-AAD). YO-PRO-1 stains apoptotic cells and 7-ADD detects cell permeability. At 36 hours cell viability was measured via flow cytometry.

AML primary samples = experiment: Activity of SLs against AML primary samples
[1] = system: normal peripheral blood mononuclear cells (PBMNCs); experiment: Toxicity against normal peripheral blood mononuclear cells compared with leukemic cells; assay type: cell-based; settings: PBMNCs compared with leukemic cells (FIG. 14)
From the text: The cytotoxicity of Bahia II against leukemic cells was compared with its activity against normal peripheral blood mononuclear cells (PBMNCs) (FIG. 14).

Solubility in water = assay type: physicochemical
MOLM-13_BLIV cells = experiment: In vivo efficacy in NSG mice injected with MOLM-13_BLIV leukemia cells (luciferin imaging); settings: 2.5 mg/kg in 20% DMSO i.p. every other day, imaged Day 23 and Day 31, vs vehicle
Experimental: To evaluate the efficacy of bahia II (BAH) in vivo, 6-8 week old NSG mice were injected i.v. via tail vein with 2.5×10^5 MOLM-13_BLIV cells. Two weeks after injection mice were injected with 3 mg of luciferin to visualize the leukemia cells using the IVIS Spectrum Imager. This was denoted time 0. Mice were randomized into 2 groups: (1) Vehicle (DMSO 20%) and (2) bahia II (BAH) (2.5 mg/kg in 20% DMSO). Mice were treated with vehicle or BAH every other day. After 3 doses, administered by i.p. injection, mice were imaged to evaluate tumor progression (Day 23). One week after the first 3 doses, the mice were treated and evaluated again in the same manner (Day 31).

| Compound | LD50 (MV4-11 cells) [µM] | Average LD50 (AML primary samples) [µM] | also measured |
| --- | --- | --- | --- |
| Glaucolide E | 1.12 |  |  |
| Bahia I | 2.80 |  |  |
| C=C(C)C(=O)O[C@@H]1C[C@@]2(C)OC(=CC2=O)/C(C)=C\[C@H]2OC(=O)C(=C)[C@@H]21 [Calaxin] | 0.0544 |  |  |
| C=C1C(=O)O[C@@H]2[C@H]3C(C)=CC(=O)C3=C(C)CC[C@@H]12 [DHL, Dehydroleucodine, reference compound] | 3.19 | 7.06 |  |
| C=C1C(=O)OC2C1C(OC(=O)/C(=C/CO)CO)CC1(CO1)C1CC=C(C)C21 (centres unmarked) [Bahia II] | 1.21 | 4.64 | toxicity against normal cells versus leukemia cells [1]: much lower toxicity against normal cells; solubility in water (Solubility in water; mass concentration): 1750 ± 60 µg/mL; solubility in water (Solubility in water; molar): 465 µM; radiance emitted from tumor cells (MOLM-13_BLIV cells): significant reduction in radiance |
| C=C1C(=O)O[C@@H]2/C=C(\C)CC/C=C(\C)C[C@@H](OC(=O)/C(=C/CO)CO)[C@@H]12 [Eupatoriopicrin] | 1.09 | 5.65 |  |
| Glaucolide A | 1.82 |  |  |

Source: patent publication US11021488B2, “Hetero-substituted cyclic lactone analogues and uses thereof” (BioVentures, LLC, priority 2015, dated 2021)
